Data on 22 compounds can be found in patent US12497370B2, “Isoxazoline derivatives” (Elanco Tiergesundheit AG, priority 2019, dated 2025).

Structures are written as SMILES.

The subject of the experiment is fleas (Ctenocephalides felis). The experiment is described as follows: In vitro evaluation of ingestion activity against fleas. The settings on record: flea ingestion test, compound in organic bovine blood (0.5% DMSO), adult fleas, percent mortality between 2 h and 48 h post infestation, read-out: EC50 (the source's name). As to the method:
In Vitro Evaluation of Ingestion Activity Against Fleas (Ctenocephalides felis)
For flea ingestion tests, serial dilutions of the compound stock were performed using DMSO to achieve the desired range for EC50 and EC90 determination. An aliquot of each compound dilution was added to organic bovine blood with a final DMSO concentration of 0.5% and placed in an artificial feeding container. Fipronil is included to serve as a positive control. Ten newly emerged unfed adult fleas, 0-7 days old Ctenocephalides felis, from a laboratory colony, were aspirated into each vial or cage. The cages for flea ingestion assays were held in a temperature-controlled artificial feeding apparatus to allow continual access to organic bovine blood containing the desired concentration of compound. Fresh aliquots of compound-spiked bovine blood were provided daily for the duration of the study. Fleas were evaluated for percent mortality at various time points between 2 h and 48 h post infestation. Fleas showing normal movement and/or jumping ability were considered viable and those showing no movement after tapping the vials were scored as dead.

Turning to `Cc1cc(C2=NOC(c3cc(C(F)(F)F)cc(Cl)c3F)(C(F)(F)F)C2)ccc1C(=O)NCC(=O)NCC1CC1` (racemic) [Example 3.8, N-[2-(cyclopropylmethylamino)-2-oxo-ethyl]-2-methyl-4-[(5RS)-5-[3-chloro-2-fluoro-5-(trifluoromethyl)phenyl]-5-(trifluoromethyl)-4H-isoxazol-3-yl]benzamide], the LC50 was < 1 µg/mL. As for `Cc1cc(C2=NOC(c3cc(C(F)(F)F)cc(Cl)c3F)(C(F)(F)F)C2)ccc1C(=O)NC1CCN(C2CC2)C1=O` (racemic) [Example 3.15, 2-methyl-4-[(5RS)-5-[3-chloro-2-fluoro-5-(trifluoromethyl)phenyl]-5-(trifluoromethyl)-4H-isoxazol-3-yl]-N-[(3RS)-1-cyclopropyl-2-oxo-pyrrolidin-3-yl]benzamide], the LC50 was < 3 µg/mL. Under `Cc1cc(C2=NOC(c3cc(C(F)(F)F)cc(Cl)c3F)(C(F)(F)F)C2)ccc1C(=O)NCc1nc(C#N)cs1` (racemic) [Example 3.23, N-[(4-cyanothiazol-2-yl)methyl]-2-methyl-4-[(5RS)-5-[3-chloro-2-fluoro-5-(trifluoromethyl)phenyl]-5-(trifluoromethyl)-4H-isoxazol-3-yl]benzamide] stands < 1 µg/mL.

As to `Cc1cc(C2=NOC(c3cc(C(F)(F)F)cc(Cl)c3F)(C(F)(F)F)C2)ccc1C(=O)NN1CCNC1=O` (racemic) [Example 3.25, 2-methyl-N-(2-oxoimidazolidin-1-yl)-4-[(5RS)-5-[3-chloro-2-fluoro-5-(trifluoromethyl)phenyl]-5-(trifluoromethyl)-4H-isoxazol-3-yl]benzamide], the LC50 was < 3 µg/mL.

Turning to `Cc1cc(C2=NOC(c3cc(C(F)(F)F)cc(Cl)c3F)(C(F)(F)F)C2)ccc1C(=O)NN1CCN(CC(F)(F)F)C1=O` (racemic) [Example 3.26, 2-methyl-N-[2-oxo-3-(2,2,2-trifluoroethyl)imidazolidin-1-yl]-4-[(5RS)-5-[3-chloro-2-fluoro-5-(trifluoromethyl)phenyl]-5-(trifluoromethyl)-4H-isoxazol-3-yl]benzamide], the LC50 was < 3 µg/mL. The result for `CO[C@H]1C[C@@H](NC(=O)c2ccc(C3=NOC(c4cc(C(F)(F)F)cc(Cl)c4F)(C(F)(F)F)C3)cc2C)C1` (mixture of isomers) [Example 3.47, 4-[(5RS)-5-[3-chloro-2-fluoro-5-(trifluoromethyl)phenyl]-5-(trifluoromethyl)-4H-isoxazol-3-yl]-N-(cis-3-methoxycyclobutyl)-2-methyl-benzamide] reads < 3 µg/mL; that for `Cc1cc(C2=NOC(c3cc(C(F)(F)F)cc(Cl)c3F)(C(F)(F)F)C2)ccc1C(=O)N[C@H]1C[C@@H](S(C)(=O)=O)C1` (single isomer, unassigned) [Example 3.49, 4-[(5R or S)-5-[3-chloro-2-fluoro-5-(trifluoromethyl)phenyl]-5-(trifluoromethyl)-4H-isoxazol-3-yl]-2-methyl-N-((cis)3-methylsulfonylcyclobutyl) benzamide], < 1 µg/mL.

`Cc1cc(C2=NOC(c3cc(C(F)(F)F)cc(Cl)c3F)(C(F)(F)F)C2)ccc1C(=O)NC1CC(F)C1` (single isomer, unassigned) [Example 3.50, N-(3-fluorocyclobutyl)-2-methyl-4-[(5R or S)-5-[3-chloro-2-fluoro-5-(trifluoromethyl)phenyl]-5-(trifluoromethyl)-4H-isoxazol-3-yl]benzamide]: the LC50 is < 1 µg/mL. In the case of `Cc1cc(C2=NOC(c3cc(C(F)(F)F)cc(Cl)c3F)(C(F)(F)F)C2)ccc1C(=O)NC1CSC1` (single isomer, unassigned) [Example 3.51, 2-methyl-4-[(5R or S)-5-[3-chloro-2-fluoro-5-(trifluoromethyl)phenyl]-5-(trifluoromethyl)-4H-isoxazol-3-yl]-N-(thietan-3-yl)benzamide], the LC50 is < 1 µg/mL. Take `Cc1cc(C2=NOC(c3cc(C(F)(F)F)cc(Cl)c3F)(C(F)(F)F)C2)ccc1C(=O)NC1CS(=O)(=O)C1` (single isomer, unassigned) [Example 3.52, 4-[(5R or S)-5-[3-chloro-2-fluoro-5-(trifluoromethyl)phenyl]-5-(trifluoromethyl)-4H-isoxazol-3-yl]-N-(1,1-dioxothietan-3-yl)-2-methyl-benzamide]: the LC50 is < 1 µg/mL. As for `Cc1cc(C2=NOC(c3cc(C(F)(F)F)cc(Cl)c3F)(C(F)(F)F)C2)ccc1C(=O)N[C@@H]1CNC1=O` (single isomer, unassigned) [Example 3.53, 4-[(5R or S)-5-[3-chloro-2-fluoro-5-(trifluoromethyl)phenyl]-5-(trifluoromethyl)-4H-isoxazol-3-yl]-2-methyl-N-[(3R)-2-oxoazetidin-3-yl]benzamide], the LC50 is < 1 µg/mL. On to `Cc1cc(C2=NOC(c3cc(C(F)(F)F)cc(Cl)c3F)(C(F)(F)F)C2)ccc1C(=O)NC1C[S+]([O-])C1` (single isomer, unassigned) [Example 3.55], for which the LC50 is < 1 µg/mL. As to `Cc1cc(C2=NOC(c3cc(C(F)(F)F)cc(Cl)c3F)(C(F)(F)F)C2)ccc1C(=O)NC1CN(S(=O)(=O)C(F)(F)F)C1` (single isomer, unassigned) [Example 3.61, 2-methyl-4-[(5R or S)-5-[3-chloro-2-fluoro-5-(trifluoromethyl)phenyl]-5-(trifluoromethyl)-4H-isoxazol-3-yl]-N-[1-(trifluoromethylsulfonyl)azetidin-3-yl]benzamide], the LC50 was < 3 µg/mL. Take `Cc1cc(C2=NOC(c3cc(C(F)(F)F)cc(Cl)c3F)(C(F)(F)F)C2)ccc1C(=O)NC1CC2(COC2)C1` (single isomer, unassigned) [Example 3.62, 2-methyl-N-(2-oxaspiro[3.3]heptan-6-yl)-4-[(5R or S)-5-[3-chloro-2-fluoro-5-(trifluoromethyl)phenyl]-5-(trifluoromethyl)-4H-isoxazol-3-yl]benzamide]: the LC50 is < 1 µg/mL.

`Cc1cc(C2=NO[C@](c3cc(C(F)(F)F)cc(Cl)c3F)(C(F)(F)F)C2)ccc1C(=O)N[C@H]1C[C@H](C(F)(F)F)C1` (single isomer, unassigned) [Example 3.65, 2-methyl-4-[(5R or S)-5-[3-chloro-2-fluoro-5-(trifluoromethyl)phenyl]-5-(trifluoromethyl)-4H-isoxazol-3-yl]-N-[trans-3-(trifluoromethyl)cyclobutyl] benzamide]: the LC50 is < 1 µg/mL. The result for `Cc1cc(C2=NOC(c3cc(C(F)(F)F)cc(Cl)c3F)(C(F)(F)F)C2)ccc1C(=O)NC1CN(S(=O)(=O)N(C)C)C1` (single isomer, unassigned) [Example 3.66, N-[1-(dimethylsulfamoyl)azetidin-3-yl]-2-methyl-4-[(5R or S)-5-[3-chloro-2-fluoro-5-(trifluoromethyl)phenyl]-5-(trifluoromethyl)-4H-isoxazol-3-yl]benzamide] reads < 1 µg/mL. With `Cc1cc(C2=NOC(c3cc(C(F)(F)F)cc(Cl)c3F)(C(F)(F)F)C2)ccc1C(=O)NC1CN(C(N)=O)C1` (single isomer, unassigned) [Example 3.71, 3-[[2-methyl-4-[(5S or R)-5-[3-chloro-2-fluoro-5-(trifluoromethyl)phenyl]-5-(trifluoromethyl)-4H-isoxazol-3-yl]benzoyl]amino]azetidine-1-carboxamide], the LC50 is < 1 µg/mL. In the case of `Cc1cc(C2=NOC(c3cc(C(F)(F)F)cc(Cl)c3F)(C(F)(F)F)C2)ccc1C(=O)N[C@H]1CN(CC(F)(F)F)C1=O` (single isomer, unassigned) [Example 3.72, 4-[(5R or S)-5-[3-chloro-2-fluoro-5-(trifluoromethyl)phenyl]-5-(trifluoromethyl)-4H-isoxazol-3-yl]-2-methyl-N-[(3S)-2-oxo-1-(2,2,2-trifluoroethyl)azetidin-3-yl]benzamide], the LC50 is < 3 µg/mL.

`Cc1cc(C2=NOC(c3cc(C(F)(F)F)cc(Cl)c3F)(C(F)(F)F)C2)ccc1C(=O)N[C@@H]1CN(CC(F)(F)F)C1=O` (single isomer, unassigned) [Example 3.73, 4-[(5R or S)-5-[3-chloro-2-fluoro-5-(trifluoromethyl)phenyl]-5-(trifluoromethyl)-4H-isoxazol-3-yl]-2-methyl-N-[(3R)-2-oxo-1-(2,2,2-trifluoroethyl)azetidin-3-yl]benzamide]: the LC50 is < 1 µg/mL. The result for `Cc1cc(C2=NO[C@](c3cc(C(F)(F)F)cc(Cl)c3F)(C(F)(F)F)C2)ccc1C(=O)N[C@H]1C[C@@H](C(F)(F)F)C1` (single isomer, unassigned) [Example 3.74, 2-methyl-4-[(5R or S)-5-[3-chloro-2-fluoro-5-(trifluoromethyl)phenyl]-5-(trifluoromethyl)-4H-isoxazol-3-yl]-N-[cis-3-(trifluoromethyl)cyclobutyl] benzamide] reads < 1 µg/mL; that for `Cc1cc(C2=NOC(c3cc(C(F)(F)F)cc(Cl)c3F)(C(F)(F)F)C2)ccc1C(=O)Nc1cnn(CC#N)c1` (single isomer, unassigned) [Example 3.75, N-[1-(cyanomethyl)pyrazol-4-yl]-2-methyl-4-[(5S or R)-5-[3-chloro-2-fluoro-5-(trifluoromethyl)phenyl]-5-(trifluoromethyl)-4H-isoxazol-3-yl]benzamide], < 3 µg/mL; that for `Cc1cc(C2=NOC(c3cc(C(F)(F)F)cc(Cl)c3F)(C(F)(F)F)C2)ccc1C(=O)N[C@@H]1CCN(CC#N)C1` (single isomer, unassigned) [Example 3.76, 4-[(5S or R)-5-[3-chloro-2-fluoro-5-(trifluoromethyl)phenyl]-5-(trifluoromethyl)-4H-isoxazol-3-yl]-N-[(3R)-1-(cyanomethyl)pyrrolidin-3-yl]-2-methyl-benzamide], < 1 µg/mL.
